According to patent US20140336193A1, “POTENT NON-UREA INHIBITORS OF SOLUBLE EPOXIDE HYDROLASE” (priority 2012, published 2014):

Legend:
Human sEH [1] = molecular target: T1, Human sEH (Homo sapiens, UniProt P34913); assay: Fluorescent assay with CMNPC substrate (Example 2); format: biochemical
T1 sequence (P34913 1-555): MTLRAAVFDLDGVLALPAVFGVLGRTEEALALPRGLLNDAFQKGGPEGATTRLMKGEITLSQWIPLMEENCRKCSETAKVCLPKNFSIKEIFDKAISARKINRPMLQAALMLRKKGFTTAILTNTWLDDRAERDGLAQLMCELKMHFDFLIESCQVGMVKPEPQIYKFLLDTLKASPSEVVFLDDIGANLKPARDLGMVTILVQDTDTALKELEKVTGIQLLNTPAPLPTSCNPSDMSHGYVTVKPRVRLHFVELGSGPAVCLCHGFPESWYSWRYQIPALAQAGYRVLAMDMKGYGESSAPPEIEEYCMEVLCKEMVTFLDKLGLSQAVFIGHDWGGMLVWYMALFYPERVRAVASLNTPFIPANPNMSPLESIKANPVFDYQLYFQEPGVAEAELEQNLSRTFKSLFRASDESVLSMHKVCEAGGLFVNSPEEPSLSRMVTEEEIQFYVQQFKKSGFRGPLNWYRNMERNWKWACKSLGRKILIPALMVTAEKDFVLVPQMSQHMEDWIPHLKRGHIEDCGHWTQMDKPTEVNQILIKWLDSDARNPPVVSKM
Method: A fluorescent assay was employed for high throughput screening (HTS) of inhibitors of sEH. Cyano(2-methoxynaphthalen-6-yl)methyl trans-(3-phenyloxyran-2-yl)methyl carbonate (CMNPC) was used as the fluorescent substrate. Human sEH (1 nM) was incubated with a compound of Formula I for 5 min in pH 7.0 Bis-Tris/HCl buffer (25 mM) containing 0.1 mg/mL of BSA at 30° C. prior to substrate introduction ([S]=5 μM). […] IC50 values are the average of the three replicates with at least two datum points above and at least two below the IC50.

[2] = In vitro human liver microsomal metabolic stability (Example 4); format: in vitro ADME; details: for CLint scaled / half-life: pooled human liver microsomes; for CLint scaled: apparent intrinsic clearance, human liver microsomes; for half-life: half life in human liver microsomes, averages of duplicate determination, read-out: hLM t1/2
Method: The stability of sEH inhibitors in a human liver microsomal assay was determined as a predictor of in vivo oxidative metabolism. Microsomal stability was assessed in pooled human liver microsomes (Celsis, Edison, N.J.). All reactions were carried out for 90 min at 37° C. in an NADPH-generating system consisting of glucose 6-phosphate, glucose 6-phosphate dehydrogenase, and NADP^+ (Sigma, St. Louis, Mo.). Positive control incubations proceeded with 7-ethoxycoumarin as the substrate. Reactions were terminated by adding methanol. The mixtures were centrifuged and the supernatants were evaporated. The residues were reconstituted in mobile phase (85% ACN; 15% H2O) and subjected to LC/MS analysis.

Human sEH [3] = molecular target: T1, Human sEH; assay: biochemical; details: Table 1

| SMILES | IC50 (Human sEH [1]) | also measured |
| --- | --- | --- |
| Cc1ccc(S(=O)(=O)N2CCC(C(=O)N[C@@H]3C[C@H]3c3ccccc3)CC2)c(C)c1 [Compound 7-3] | 0.0052 µM | CLint scaled [2]: 90 mL/min/kg; half-life [2]: 14 min |
| Cc1ccc(S(=O)(=O)N2CCC(C(=O)NC3CCCCC3)CC2)c(C)c1 [Compound 7-6] | – | CLint scaled [2]: 90 mL/min/kg; half-life [2]: 14 min |
| Cc1ccc(S(=O)(=O)N2CCC(C(=O)NC3CCCc4ccccc43)CC2)c(C)c1 (centres unmarked) [Compound 7-8] | 0.0006 µM | – |
| Cc1ccc(S(=O)(=O)N2CCC(C(=O)NCC3CCCCC3)CC2)c(C)c1 [Compound 7-9] | – | CLint scaled [2]: 520 mL/min/kg; half-life [2]: 2.4 min |
| Cc1ccc(S(=O)(=O)N2CCC(C(=O)NC34CC5CC(CC(C5)C3)C4)CC2)c(C)c1 [Compound 7-11] | 0.0085 µM | CLint scaled [2]: 340 mL/min/kg; half-life [2]: 3.7 min |
| Cc1ccc(S(=O)(=O)N2CCC(C(=O)Nc3ccccc3F)CC2)c(C)c1 [Compound 7-13] | 0.02 µM | – |
| Cc1ccc(S(=O)(=O)N2CCC(C(=O)Nc3ccccc3Cl)CC2)c(C)c1 [Compound 7-14] | 0.25 µM | – |
| Cc1ccc(S(=O)(=O)N2CCC(C(=O)Nc3ccccc3Br)CC2)c(C)c1 [Compound 7-15] | 0.03 µM | – |
| Cc1ccc(S(=O)(=O)N2CCC(C(=O)Nc3ccccc3C)CC2)c(C)c1 [Compound 7-16] | 0.64 µM | – |
| Cc1ccc(S(=O)(=O)N2CCC(C(=O)Nc3ccccc3O)CC2)c(C)c1 [Compound 7-17] | 2.2 µM | – |
| Cc1ccc(S(=O)(=O)N2CCC(C(=O)Nc3ccc(N4CCCCC4)cc3)CC2)c(C)c1 [Compound 7-25] | 0.029 µM | in vitro metabolic stability in human liver microsomes, in words [2]: intermediate metabolic profiles |
| Cc1ccc(S(=O)(=O)N2CCC(C(=O)Nc3ccc(N4CCCCC4)c(C(N)=O)c3)CC2)c(C)c1 [Compound 7-26] | 0.102 µM | in vitro metabolic stability in human liver microsomes, in words [2]: intermediate metabolic profiles |
| Cc1ccc(S(=O)(=O)N2CCC(C(=O)Nc3ccc(N4CCOCC4)cc3)CC2)c(C)c1 [Compound 7-27] | 0.041 µM | – |
| Cc1ccc(S(=O)(=O)N2CCC(C(=O)Nc3cccc(C(F)(F)F)c3)CC2)c(C)c1 [Compound 7-31] | 0.02 µM | – |
| Cc1ccc(S(=O)(=O)N2CCC(C(=O)Nc3cc(Cl)cc(Cl)c3)CC2)c(C)c1 [Compound 7-35] | 0.012 µM | – |
| Cc1ccc(S(=O)(=O)N2CCC(C(=O)Nc3ccc(Cl)c(C(F)(F)F)c3)CC2)c(C)c1 [Compound 7-36] | 0.043 µM | – |
| Cc1ccc(S(=O)(=O)N2CCC(C(=O)NC34CC5CC(CC(C5)C3)C4)CC2)c(C)c1 [Compound 2535] | – | IC50 (Human sEH [3]): 0.0085 µM |
| Cc1ccc(S(=O)(=O)N2CCC(C(=O)NC3C[C@@H]3c3ccccc3)CC2)c(C)c1 (some centres unmarked) [Compound 2536] | – | IC50 (Human sEH [3]): 0.0052 µM |
| Cc1ccc(S(=O)(=O)N2CCC(C(=O)Nc3ccc4cc(C(=O)O)ccc4c3)CC2)c(C)c1 [Compound 2590] | – | IC50 (Human sEH [3]): 0.0232 µM |

Continued, in another order:

| IC50 (Human sEH [1]) | SMILES | also measured |
| --- | --- | --- |
| 0.023 µM | Cc1ccc(S(=O)(=O)N2CCC(C(=O)Nc3ccccc3)CC2)c(C)c1 [Compound 7-12] | – |
| 0.055 µM | Cc1ccc(S(=O)(=O)N2CCC(C(=O)Nc3ccc(O)cc3)CC2)c(C)c1 [Compound 7-19] | – |
| 0.006 µM | Cc1ccc(S(=O)(=O)N2CCC(C(=O)Nc3ccc(Oc4ccccc4)cc3)CC2)c(C)c1 [Compound 7-20] | CLint scaled [2]: 120 mL/min/kg; half-life [2]: 11 min |
| 0.013 µM | COC(=O)c1ccc(NC(=O)C2CCN(S(=O)(=O)c3ccc(C)cc3C)CC2)cc1 [Compound 7-21] | – |
| 0.11 µM | Cc1ccc(S(=O)(=O)N2CCC(C(=O)Nc3ccc(C(=O)O)cc3)CC2)c(C)c1 [Compound 7-22] | – |
| 0.0052 µM | Cc1ccc(S(=O)(=O)N2CCC(C(=O)Nc3ccc(OC(F)(F)F)cc3)CC2)c(C)c1 [Compound 7-23] | CLint scaled [2]: 28 mL/min/kg; half-life [2]: 46 min |
| 0.0046 µM | Cc1ccc(S(=O)(=O)N2CCC(C(=O)Nc3ccc([N+](=O)[O-])cc3)CC2)c(C)c1 [Compound 7-24] | CLint scaled [2]: 7 mL/min/kg; half-life [2]: 180 min |
| 0.0028 µM | Cc1ccc(S(=O)(=O)N2CCC(C(=O)Nc3ccc(C(C)C)cc3)CC2)c(C)c1 [Compound 7-28] | – |
| 0.0069 µM | Cc1ccc(S(=O)(=O)N2CCC(C(=O)Nc3ccc(C(F)(F)F)cc3)CC2)c(C)c1 [Compound 7-29] | – |
| 0.0087 µM | Cc1ccc(S(=O)(=O)N2CCC(C(=O)Nc3ccc(S(=O)(=O)C(F)(F)F)cc3)CC2)c(C)c1 [Compound 7-30] | – |
| 0.025 µM | Cc1ccc(S(=O)(=O)N2CCC(C(=O)Nc3ccc(F)cc3)CC2)c(C)c1 [Compound 7-32] | – |
| 0.02 µM | Cc1ccc(S(=O)(=O)N2CCC(C(=O)Nc3ccc(Cl)cc3)CC2)c(C)c1 [Compound 7-33] | – |
| 0.017 µM | Cc1ccc(S(=O)(=O)N2CCC(C(=O)Nc3ccc(Br)cc3)CC2)c(C)c1 [Compound 7-34] | – |
| 0.0067 µM | Cc1ccc(S(=O)(=O)N2CCC(C(=O)Nc3ccc(Cl)c(Cl)c3)CC2)c(C)c1 [Compound 7-37] | CLint scaled [2]: 50 mL/min/kg; half-life [2]: 25 min |
| 0.0016 µM | Cc1ccc(S(=O)(=O)N2CCC(C(=O)Nc3ccc4ccccc4c3)CC2)c(C)c1 [Compound 7-38] | CLint scaled [2]: 35 mL/min/kg; half-life [2]: 36 min |
| 0.045 µM | Cc1ccc(S(=O)(=O)N2CCC(C(=O)Nc3cnc4ccccc4c3)CC2)c(C)c1 [Compound 7-40] | – |
| 0.078 µM | Cc1ccc(S(=O)(=O)N2CCC(C(=O)Nc3ccc4ncccc4c3)CC2)c(C)c1 [Compound 7-41] | – |
| 0.0023 µM | COC(=O)c1ccc2cc(NC(=O)C3CCN(S(=O)(=O)c4ccc(C)cc4C)CC3)ccc2c1 [Compound 7-43] | – |
| 0.023 µM | Cc1ccc(S(=O)(=O)N2CCC(C(=O)Nc3ccc4cc(C(=O)O)ccc4c3)CC2)c(C)c1 [Compound 7-44] | in vitro metabolic stability in human liver microsomes, in words [2]: excellent in vitro metabolic stability; CLint scaled [2]: 5.6 mL/min/kg; half-life [2]: 220 min |
| 0.0006 µM | Cc1ccc(S(=O)(=O)N2CCC(C(=O)Nc3ccc4c(c3)OCO4)CC2)c(C)c1 [Compound 7-45] | CLint scaled [2]: 35 mL/min/kg; half-life [2]: 36 min |
